Measurements: patent US20050130134A1, “Means and methods for monitoring non-nucleoside reverse transcriptase inhibitor antiretroviral therapy and guiding therapeutic decisions in the treatment HIV-AIDS” (ViroLogic, Inc., priority 2000, published 2005)
Values joined by “and” are separate entries in the source; they are usually repeats but may differ in a detail not shown here. Identical values can stand only once. “Also recorded” adds a separate entry of the source.

What was measured:
[1] = system: RTV-1060 patient virus (RT K101E, G190S); experiment: Phenotypic susceptibility assay, RTV-1060 (patient 98-1060); assay type: cell-based, HIV-1; settings: >1 decreased susceptibility
Protocol: (§1) Resistance tests were carried out with resistance test vectors using two host cell types. Resistance test vector viral particles were produced by a first host cell (the resistance test vector host cell) that was prepared by transfecting a packaging host cell with the resistance test vector and the packaging expression vector. The resistance test vector viral particles were then used to infect a second host cell (the target host cell) in which the expression of the indicator gene is measured.
(§2) The resistance test vectors containing a functional luciferase gene cassette were constructed and host cells were transfected with the resistance test vector DNA. The resistant test vectors contained patient-derived reverse transcriptase and protease sequences that were either susceptible or resistant to the antiretroviral agents, such as nucleoside reverse transcriptase inhibitors, non-nucleoside reverse transcriptase inhibitors and protease inhibitors. […] The IC50 values were determined by plotting percent drug inhibition vs. log10 drug concentration.
(§3) Host cells were seeded in 10-cm-diameter dishes and were transfected several days after plating with resistance test vector plasmid DNA and the envelope expression vector. […] HIV capsid protein (p24) levels in the harvested cell culture media were determined by an EIA method as described by the manufacturer (SIAC; Frederick, Md.). […] The inhibitory effect of the drug was determined using the following equation: % luciferase inhibition=1-(RLUluc[drug]÷RLUluc)×100 where RLUluc [drug] is the relative light unit of luciferase activity in infected cells in the presence of drug and RLUluc is the Relative Light Unit of luciferase activity in infected cells in the absence of drug. […]
An IC50 was determined for the resistance test vector pool for each drug tested.

[2] = system: HIV-1 reverse transcriptase P225H (P225H-RTV); experiment: Phenotypic susceptibility assay, site directed mutant P225H-RTV; assay type: cell-based; settings: P225H alone versus wild type control RTV
Protocol: (§4) Transfections were performed using a calcium-phosphate precipitation procedure. […] Cell lysates were assayed for luciferase activity (FIG. 3). […] The drug inhibition curves are shown in (FIG. 3).
Resistance test vectors were constructed containing the P225H mutation alone and in combination with other known drug resistance mutations (K103N, Y181C) known to modulate the HIV susceptibility to NNRTIs. […] (Sakar G and Sommar S S (1994) Biotechniques 8(4), 404-407). […] The P225H mutation was also introduced into a RTV containing additional mutations at K103N, Y181C or both (K103N+Y181C).

[3] = system: HIV-1 reverse transcriptase E138A + Y188L (E138A-Y188L-RTV); experiment: Phenotypic susceptibility assay, site directed mutant E138A-Y188L-RTV; assay type: cell-based; settings: >1 loss of susceptibility
Protocol: as §1
as §2, with “inhibitors. The resistance test vector viral particles produced by transfecting the resistance test vector DNA into host cells, either in the presence or absence of protease inhibitors, were used to infect target host cells grown either in the absence of NRTI or NNRTI or in the presence of increasing concentrations of the drug.” for “inhibitors.”
as §3

[4] = system: HIV-1 reverse transcriptase A98G (A98G-RTV); experiment: Phenotypic susceptibility assay, site directed mutant A98G-RTV; assay type: cell-based; settings: >1 loss of susceptibility
Protocol: as §1
as §2, with “inhibitors. The resistance test vector viral particles produced by transfecting the resistance test vector DNA into host cells, either in the presence or absence of protease inhibitors, were used to infect target host cells grown either in the absence of NRTI or NNRTI or in the presence of increasing concentrations of the drug.” for “inhibitors.”
as §3

[5] = system: HIV-1 reverse transcriptase A98G + G190S (A98G-G190S-RTV); experiment: Phenotypic susceptibility assay, site directed mutant A98G-G190S-RTV; assay type: cell-based; settings: >1 loss, <1 increased susceptibility
Protocol: as §1
as §2, with “inhibitors. The resistance test vector viral particles produced by transfecting the resistance test vector DNA into host cells, either in the presence or absence of protease inhibitors, were used to infect target host cells grown either in the absence of NRTI or NNRTI or in the presence of increasing concentrations of the drug.” for “inhibitors.”
as §3

[6] = system: HIV-1 reverse transcriptase Y181C (Y181C-RTV); experiment: Phenotypic susceptibility assay, site directed mutant Y181C-RTV; assay type: cell-based; settings: for resistance profile: Y181C site directed mutant, FIG. 5
Protocol: as §1
as §2, with “inhibitors. The resistance test vector viral particles produced by transfecting the resistance test vector DNA into host cells, either in the presence or absence of protease inhibitors, were used to infect target host cells grown either in the absence of NRTI or NNRTI or in the presence of increasing concentrations of the drug.” for “inhibitors.”
as §3

[7] = system: HIV-1 reverse transcriptase Y181C + A98G (Y181C-A98G-RTV); experiment: Phenotypic susceptibility assay, site directed mutant Y181C-A98G-RTV; assay type: cell-based; settings: >1 loss of susceptibility
Protocol: as §1
as §2, with “inhibitors. The resistance test vector viral particles produced by transfecting the resistance test vector DNA into host cells, either in the presence or absence of protease inhibitors, were used to infect target host cells grown either in the absence of NRTI or NNRTI or in the presence of increasing concentrations of the drug.” for “inhibitors.”
as §3

[8] = system: HIV-1 reverse transcriptase V108I (V108I-RTV); experiment: Phenotypic susceptibility assay, site directed mutant V108I-RTV; assay type: cell-based; settings: >1 loss of susceptibility
Protocol: as §1
as §2, with “inhibitors. The resistance test vector viral particles produced by transfecting the resistance test vector DNA into host cells, either in the presence or absence of protease inhibitors, were used to infect target host cells grown either in the absence of NRTI or NNRTI or in the presence of increasing concentrations of the drug.” for “inhibitors.”
as §3

[9] = system: HIV-1 reverse transcriptase K103N + G190A (K103N-G190A-RTV); experiment: Phenotypic susceptibility assay, site directed mutant K103N-G190A-RTV; assay type: cell-based; settings: K103N-G190-RTV (K103N + G190A); >1 loss of susceptibility
Protocol: as §1
as §2, with “inhibitors. The resistance test vector viral particles produced by transfecting the resistance test vector DNA into host cells, either in the presence or absence of protease inhibitors, were used to infect target host cells grown either in the absence of NRTI or NNRTI or in the presence of increasing concentrations of the drug.” for “inhibitors.”
as §3

[10] = system: HIV-1 reverse transcriptase K103N (K103N-RTV); experiment: Phenotypic susceptibility assay, site directed mutant K103N-RTV; assay type: cell-based; settings: for change in susceptibility / resistance: K103N mutation; for fold change in susceptibility compared to wild type control RTV: K103N-RTV, >1 loss of susceptibility
Protocol: as §1
(§5) The resistance test vectors containing a functional luciferase gene cassette were constructed and host cells were transfected with the resistance test vector DNA. The resistant test vectors contained patient-derived reverse transcriptase and protease sequences that were either susceptible or resistant to the antiretroviral agents, such as nucleoside reverse transcriptase inhibitors, non-nucleoside reverse transcriptase inhibitors and protease inhibitors. The resistance test vector viral particles produced by transfecting the resistance test vector DNA into host cells, either in the presence or absence of protease inhibitors, were used to infect target host cells grown either in the absence of NRTI or NNRTI or in the presence of increasing concentrations of the drug. The amount of luciferase activity produced in infected target host cells in the presence of drug was compared to the amount of luciferase produced in infected target host cells in the absence of drug. Drug resistance was measured as the amount of drug required to inhibit by 50% the luciferase activity detected in the absence of drug (inhibitory concentration 50%, IC50). The IC50 values were determined by plotting percent drug inhibition vs. log10 drug concentration.
Host cells were seeded in 10-cm-diameter dishes and were transfected several days after plating with resistance test vector plasmid DNA and the envelope expression vector. Transfections were performed using a calcium-phosphate precipitation procedure. The cell culture media containing the DNA precipitate was replaced with fresh medium, from one to 24 hours, after transfection. Cell culture media containing resistance test vector viral particles was harvested one to four days after transfection and was passed through a […] filter before being stored at −80° C. HIV capsid protein (p24) levels in the harvested cell culture media were determined by an EIA method as described by the manufacturer (SIAC; Frederick, Md.). Before infection, target cells (293 and 293/T) were plated in cell culture media. Control infections were performed using cell culture media from mock transfections (no DNA) or transfections containing the resistance test vector plasmid DNA without the envelope expression plasmid. One to three or more days after infection the media was removed and cell lysis buffer (Promega) was added to each well. […] The inhibitory effect of the drug was determined using the following equation: % luciferase inhibition=1-(RLUluc[drug]÷RLUluc)×100 where RLUluc [drug] is the relative light unit of luciferase activity in infected cells in the presence of drug and RLUluc is the Relative Light Unit of luciferase activity in infected cells in the absence of drug. IC50 values were obtained from the sigmoidal curves that were generated from the data by plotting the percent inhibition of luciferase activity vs. the log10 drug concentration. […]

[11] = system: HIV-1 reverse transcriptase V106A + Y181C (V106A-Y181C-RTV); experiment: Phenotypic susceptibility assay, site directed mutant V106A-Y181C-RTV; assay type: cell-based; settings: >1 loss of susceptibility
Protocol: as §1
as §5, with “The amount of luciferase activity produced in infected target host cells in the presence of drug was compared to the amount of luciferase produced in infected target host cells in the absence of drug. Drug resistance was measured as the amount of drug required to inhibit by 50% the luciferase activity detected in the absence of drug (inhibitory concentration 50%, IC50).” left out
as §3

[12] = system: HIV-1 reverse transcriptase V106A + F227L (V106A-F227-RTV); experiment: Phenotypic susceptibility assay, site directed mutant V106A-F227-RTV; assay type: cell-based; settings: >1 loss of susceptibility
Protocol: as §1
as §5, with “The amount of luciferase activity produced in infected target host cells in the presence of drug was compared to the amount of luciferase produced in infected target host cells in the absence of drug. Drug resistance was measured as the amount of drug required to inhibit by 50% the luciferase activity detected in the absence of drug (inhibitory concentration 50%, IC50).” left out
as §3

[13] = system: HIV-1 reverse transcriptase V106A + Y181C + F227L (V106A-Y181C-F227L-RTV); experiment: Phenotypic susceptibility assay, site directed mutant V106A-Y181C-F227L-RTV; assay type: cell-based; settings: >1 loss of susceptibility
Protocol: as §1
as §5, with “The amount of luciferase activity produced in infected target host cells in the presence of drug was compared to the amount of luciferase produced in infected target host cells in the absence of drug. Drug resistance was measured as the amount of drug required to inhibit by 50% the luciferase activity detected in the absence of drug (inhibitory concentration 50%, IC50).” left out
as §3

[14] = system: HIV-1 reverse transcriptase L100I (L100I-RTV); experiment: Phenotypic susceptibility assay, site directed mutant L100I-RTV; assay type: cell-based; settings: >1 loss of susceptibility
Protocol: as §1
as §5, with “The amount of luciferase activity produced in infected target host cells in the presence of drug was compared to the amount of luciferase produced in infected target host cells in the absence of drug. Drug resistance was measured as the amount of drug required to inhibit by 50% the luciferase activity detected in the absence of drug (inhibitory concentration 50%, IC50).” left out
as §3

[15] = system: T66I integrase site-directed mutant; experiment: Phenotypic susceptibility assay, integrase T66I mutated resistance test vector; assay type: cell-based, HIV; settings: {}
Protocol: as §4
A resistance test vector containing the threonine to isoleucine mutation at position 66 of the integrase protein (T66I) was constructed and tested using the phenotypic assay described earlier.

| Structure (SMILES) | fold change in susceptibility [1] | change in susceptibility [2] | fold change in susceptibility compared to wild type control RTV [3] | fold change in susceptibility compared to wild type control RTV [4] [fold] | fold change in susceptibility compared to wild type control RTV [5] | resistance profile [6] | fold change in susceptibility compared to wild type control RTV [7] | fold change in susceptibility compared to wild type control RTV [8] [fold] | fold change in susceptibility compared to wild type control RTV [9] | change in susceptibility / resistance [10] | fold change in susceptibility compared to wild type control RTV [10] [fold] | fold change in susceptibility compared to wild type control RTV [11] | fold change in susceptibility compared to wild type control RTV [12] | fold change in susceptibility compared to wild type control RTV [13] | fold change in susceptibility compared to wild type control RTV [14] [fold] | increase in susceptibility compared to wild type control RTV [15] [fold] | fold change in susceptibility compared to wild type control RTV ([6]; Y181C-RTV, >1 loss of susceptibility) |
| --- | --- | --- | --- | --- | --- | --- | --- | --- | --- | --- | --- | --- | --- | --- | --- | --- | --- |
| CC(C)Nc1cccnc1N1CCN(C(=O)c2cc3cc(NS(C)(=O)=O)ccc3[nH]2)CC1 [delavirdine] | 1.5 fold | more susceptible; also recorded: increase; also recorded: increases susceptibility | 75 fold | 3 | 0.8 fold | resistance | 240 fold | 1.3 | 40 fold | reduced susceptibility; also recorded: resistance | 50 | 100 fold | 3 fold | 50 fold | 30 | 8 to 10 |  |
| O=C1Nc2ccc(Cl)cc2[C@@](C#CC2CC2)(C(F)(F)F)O1 [efavirenz] | 900 fold | little or no change | 88 fold | 3 | greater than 250 fold |  | 7 fold | 1.7 | 215 fold |  | 30 | 4 fold | 8 fold | 12 fold | 10 | 8 to 10 | 3 fold and 4 fold |
| Cc1ccnc2c1NC(=O)c1cccnc1N2C1CC1 [nevirapine] | greater than 800 fold | No significant change; also recorded: little or no change | greater than 800 fold | 8 | greater than 800 fold | resistance | greater than 800 fold | 3 | greater than 800 fold | reduced susceptibility; also recorded: resistance | 55 | greater than 800 fold | greater than 800 fold | greater than 800 fold | 3 | 8 to 10 |  |
